From patent US20100261246A1, “METHOD FOR INHIBITING TELOMERASE REACTION” (PANASONIC CORPORATION, priority 2009, published 2010) come the findings set out here.

For one test, the system named is TITANIUM Taq polymerase. The test is described as follows: PCR control (36-bp PCR amplification product) in S7700 kit one-mix reaction, Bioanalyzer 2100. Format: biochemical. Conditions: TMPyP concentration not less than 3 μM. The protocol: Therefore, TITANIUM […] polymerase (manufactured by Clontech Laboratories) was used in the present studies.
For example, it is highly probable that materials which nonspecifically bind to double-stranded DNAs inhibit PCR.
The S7700 kit includes a set of a template DNA and a primer for such ascertainment in the Primer Mix, and a 36-bp PCR amplification product is obtained from the set when the PCR is carried out.
Therefore, when the effect of a material expected to inhibit the telomerase reaction is verified using the S7700 kit, it is necessary to confirm that the telomerase reaction product is not detected in final results of electrophoresis, and that the 36-bp PCR product is normally amplified.
First, in accordance with the protocol of the kit, a telomerase solution was prepared from the attached control cell pellet. Next, a reaction solution in a total volume of 20 μL was prepared by mixing 2 μL of 10× TRAP Reaction buffer, 0.4 μL of 50× dNTP Mix, 0.4 μL of TS primer, 0.4 μL of Primer Mix, 0.4 μL of TITANIUM Taq polymerase, 14.8 μL of milliQ water (purified water), and 1.6 μL of the telomerase solution prepared as described above.
Subsequently, the telomerase reaction was allowed by standing this reaction solution under a condition of 30° C. for 30 min. Thereafter, PCR was carried out by repeating 33 times a thermo cycle of: 30 sec at 94° C.; 30 sec at 59° C.; and 1 min at 72° C. […]

Test [1] has as its system telomerase. The experiment in a line: Telomerase reaction carried out first, then PCR of the diluted reaction solution, gel electrophoresis, with or without λDNA. Conditions: final concentrations 0.1 to 10 μM. In kind it is biochemical. How it is done: (§1) Moreover, effects of inhibiting telomerase by TMPyP and anionic phthalocyanines were compared in Comparative Example 3 and Example 4 to 5 below. In these experiments, the S7700 kit was used similarly to the aforementioned Comparative Examples 1 to 2 and Examples 1 to 3. However, in Comparative Examples 1 to 2 and Examples 1 to 3 described above, the reagents required only for the telomerase reaction and PCR were all mixed first, and the telomerase reaction and PCR were carried out sequentially by regulating the reaction temperature. To the contrary, in the following Comparative Example 3 and Examples 4 to 5, only the reagents required for the telomerase reaction were first mixed to carry out a telomerase reaction, and a part of the reaction solution and the reagents required for the PCR were mixed to carry out the PCR.
In addition, in each of the following Comparative Example 3 and Examples 4 to 5, experiments were carried out with or without addition of a λDNA in the telomerase reaction. Addition of the λDNA was intended to reproduce for mimicking the conditions in which a large amount of double-stranded DNAs are present as in the case of genomic DNAs in cells, and to study the effects of inhibiting telomerase by TMPyP or anionic phthalocyanines even under conditions more approximate to those in vivo, by adding a λDNA.
Telomerase reaction solution in a total volume of 10 μL were prepared by mixing 1 μL of 10× TRAP Reaction buffer, 0.2 μL of 50× dNTP Mix, 0.2 μL of TS primer, 4 μL of the telomerase solution prepared in Comparative Example 1, 2 μL of the TMPyP aqueous solution, and 2.6 μL of milliQ water (the reaction solutions having final TMPyP concentrations of 0 M, 0.1 μM, 0.3 μM, 1 μM, 3 μM and 10 μM were prepared, respectively). Then, the reaction solutions were stood under a condition of 30° C. for 60 min to allow a telomerase reaction to be carried out.
(§2) Next, 4 μL of a solution prepared by diluting the solution after the telomerase reaction 20 times with milliQ water, 0.2 μL of 50× dNTP Mix, 0.2 μL of TS primer, 0.2 μL of Primer Mix, 0.1 μL of TaKaLa LA Taq Hot Start Version (manufactured by Takara Bio Inc.), 1 μL of 10× LA PCR buffer II (Mg^2+ plus) (buffer solution included in TaKaLa LA Taq Hot Start Version), and 4.3 μL of milliQ water were mixed to prepare a PCR solution in a total volume of 10 μL. Then, PCR was carried out by allowing this PCR solution to stand under temperature conditions in which a thermo cycle of: 30 sec at 95° C.; 30 sec at 59° C.; and 30 sec at 72° C. was repeated 30 times.
(§3) Finally, the solution after the PCR was electrophoresed on a 10% polyacrylamide gel, and stained with GelStar Nucleic Acid Stain (manufactured by Takara Bio Inc.). […] In the order from the leftmost lane, the results with final concentrations of TMPyP being 0 M, 0.1 μM, 0.3 μM, 1 μM, 3 μM and 10 μM are shown.
On the other hand, experiments in which a λDNA was added to the telomerase reaction solution were also carried out. More specifically, in preparing the telomerase reaction solution described above, 2.6 μL of a λDNA solution (manufactured by Takara Bio Inc.) was mixed in place of mixing 2.6 μL of milliQ water. Other telomerase reaction temperature/time schedule, PCR solution preparation condition, PCR temperature/time schedule, electrophoresis condition were just the same.

The subject of test [2] is telomerase. The experiment in a line: Telomerase activity measurement with S7700 kit, telomerase reaction and PCR carried out sequentially in one mix, ladder peaks by Bioanalyzer 2100. The note with it: 1.1 μM of TMPyP added. Format: biochemical.
Description: In this experiment, comparative studies of effects of inhibiting telomerase by an anionic phthalocyanine and cationic porphyrin (TMPyP) that is a conventionally known typical material having an effect of inhibiting telomerase were carried out using a kit for telomerase activity measurement manufactured by Millipore Corporation (TRAPEZE Telomeraze Detection Kit S7700).
TRAPEZE Telomeraze Detection Kit S7700 (hereinafter, merely referred to as S7700 kit) is a kit that includes 10× TRAP Reaction buffer, 50× dNTPs Mix, TS primer, Primer Mix, and a control cell pellet.
The TS primer is an oligo DNA consisting of 5′-[sequence]-3′, and serves as an initiation sequence of the telomerase reaction upon binding of telomerase, similarly to a human telomeric DNA sequence.
Therefore, the Primer Mix in the S7700 kit includes RP primer. This primer is an oligo DNA having a sequence complementary to the sequence elongated by the telomerase reaction, and thus, the telomerase reaction product can be amplified to a detectable level on electrophoresis by carrying out PCR using the aforementioned TS primer and the RP primer.
As described above, the telomerase reaction and PCR are carried out sequentially in the telomerase activity measurement using the S7700 kit. […]
In test [3] the test system is TaKaLa LA Taq Hot Start Version (polymerase reaction). The experiment in a line: PCR control band in the separate telomerase reaction / PCR experiment. Format: biochemical. The note with it: 10 μM, no addition of λDNA. The protocol:
as §1, §2, §3

The next test deals with double-stranded DNA. The experiment in a line: Absorbance 480 to 800 nm of phthalocyanine mixed with double-stranded DNA solution. In kind it is binding. The note with it: 15 μM compound solution, DNA 50 μM, pH7. The protocol:
A solution of 50 mM HEPES and 100 mM NaCl, pH7 (total volume: 100 μL) containing a single-stranded DNA consisting of a sequence of 5′-AGAAGAGAAAGA-3′ (SEQ ID NO: 4) and a single-stranded DNA consisting of a sequence of 5′-TCTTTCTCTTCT-3′ (SEQ ID NO: 5) at each concentration of 50 μM was prepared, which was incubated at 90° C. for 5 min, and thereafter cooled to 0° C. at a rate of temperature fall of 2° C./min, followed by finally incubating at 0° C. for 2 hrs. Since the aforementioned two kinds of DNAs are complementary to one another, both DNAs form a double-stranded DNA in the solution as a result of the incubation (hereafter, the solution referred to as “double-stranded DNA solution”).
(§4) Next, the aforementioned CuPC solution and single-stranded DNA solution, and the aforementioned CuPC solution and double-stranded DNA solution were similarly mixed, respectively. And then the absorbance of these liquid mixtures was measured at 480 to 800 nm. FIG. 9(A) and FIG. 9(B) show the results of the measurement in the cases of the single-stranded DNA solution and the double-stranded DNA solution, respectively.
(§5) Next, the aforementioned NiPC solution and single-stranded DNA solution, and the aforementioned NiPC solution and double-stranded DNA solution were similarly mixed, respectively; the absorbance of these liquid mixtures was measured at 480 to 800 nm. FIG. 11(A) and FIG. 11(B) show the results of the measurement in the cases of the single-stranded DNA solution and the double-stranded DNA solution, respectively. In each drawing, the result obtained when the NC solution was used is also shown together.
(§6) Next, the aforementioned PC solution and single-stranded DNA solution, and the aforementioned PC solution and double-stranded DNA solution were similarly mixed, respectively; the absorbance of these liquid mixture was measured at 480 to 800 nm. FIG. 13(A) and FIG. 13(B) show the results of the measurement in the cases of the single-stranded DNA solution and the double-stranded DNA solution, respectively. In each drawing, the result obtained when the NC solution was used is also shown together.
(§7) Next, the aforementioned CoPC solution and single-stranded DNA solution, and the aforementioned CoPC solution and double-stranded DNA solution were similarly mixed, respectively, and then the absorbance of these liquid mixtures was measured at 480 to 800 nm. FIG. 15(A) and FIG. 15(B) show the results of the measurement in the cases of the single-stranded DNA solution and the double-stranded DNA solution, respectively. In each drawing, the result obtained when the NC solution was used is also shown together.

The subject of test [4] is G-quadruplex structure (human telomeric oligo DNA). The experiment in a line: Absorbance 480 to 800 nm of phthalocyanine mixed with G-quadruplex solutions. Format: binding. The note with it: for interaction with the G-quadruplex structure (absorption peak): 15 μM compound solution, 50 mM HEPES, 100 mM NaCl, pH7. The protocol: Hereinafter, the interaction between anionic phthalocyanines and various DNAs was studied in Examples 6, 7, 8 and 9. For this purpose, a solution containing a G-quadruplex structure, a solution including a single-stranded DNA, and a solution containing a double-stranded DNA were first prepared according to the following procedures.
A solution of 50 mM HEPES and 100 mM NaCl, pH7 (total volume: 100 μL) containing a single-stranded DNA consisting of a sequence of 5′-[…]-3′ (SEQ ID NO: 2; this sequence being similar to a sequence of a human telomere portion, and thus the DNA referred to as “human telomeric oligo DNA” hereafter) was incubated at 90° C. for 5 min, and thereafter cooled to 0° C. at a rate of temperature fall of 2° C./min, followed by finally incubating at 0° C. for 2 hrs.
The concentrations of the human telomeric oligo DNA contained in the solution were 0, 0.5, 2, 5, 10, 25, 50 and 100 μM.
The absolute values of the positive and negative peaks were maximized for the solution having the human telomeric oligo DNA concentration of 100 μM, and dropped in the order of 50, 25, 10, 5, 2 and 0.5 μM. […] Hereafter, G-quadruplex solutions prepared from the solutions having human telomeric oligo DNA concentrations of 100, 50, 25, 10, 5, 2 and 0.5 μM are referred to as G-quadruplex solutions A, B, C, D, E, F and G, respectively. On the other hand, the solution without the human telomeric oligo DNA contained therein is referred to as NC solution.
First, a solution of 50 mM HEPES and 100 mM NaCl, pH7 (total volume: 20 μL) containing 15 μM CuPC was prepared. Then, this CuPC solution was mixed with each of the G-quadruplex solutions C, D, E and F and the NC solution, and the absorbance of these liquid mixtures were measured at 480 to 800 nm.
First, a solution of 50 mM HEPES and 100 mM NaCl, pH7 (total volume: 20 μL) containing 15 μM NiPC was prepared. Then, this NiPC solution was mixed with each of the G-quadruplex solutions D, E, F and G, and the NC solution, and the absorbance of these liquid mixtures were measured at 480 to 800 nm.
First, a solution of 50 mM HEPES and 100 mM NaCl, pH7 (total volume: 20 μL) containing 15 μM PC was prepared. Then, this PC solution was mixed with each of the G-quadruplex solutions D, E, F and G, and the NC solution, and the absorbance of these liquid mixtures were measured at 480 to 800 nm.
First, a solution of 50 mM HEPES and 100 mM NaCl, pH7 (total volume: 20 μL) containing 15 μM CoPC was prepared. Then, this CoPC solution was mixed with each of the G-quadruplex solutions B, C, D and G, and the NC solution, and the absorbance of these liquid mixtures were measured at 480 to 800 nm.

The subject of the next test is single-stranded DNA. The test is described as follows: Absorbance 480 to 800 nm of phthalocyanine mixed with single-stranded DNA solution. Format: binding. Conditions: 15 μM compound solution, DNA 50 μM, pH7. How it is done: A solution of 50 mM HEPES and 100 mM NaCl, pH7 (total volume: 100 μL) containing a single-stranded DNA consisting of a sequence of 5′-[…]-3′ sequence (SEQ ID NO: 3) at a concentration of 50 μM was prepared, which was incubated at 90° C. for 5 min, and thereafter cooled to 0° C. at a rate of temperature fall of 2° C./min, followed by finally incubating at 0° C. for 2 hrs. The DNA in thus resulting solution was a single-stranded DNA even after the incubation (hereafter, the solution referred to as “single-stranded DNA solution”).
as §4, §5, §6, §7

As for `C[n+]1ccc(-c2c3nc(c(-c4cc[n+](C)cc4)c4ccc([nH]4)c(-c4cc[n+](C)cc4)c4nc(c(-c5cc[n+](C)cc5)c5ccc2[nH]5)C=C4)C=C3)cc1` [TMPyP, reference compound], the “DNA concentration corresponding to the PCR control peak” value in the test with TITANIUM Taq polymerase is on record as “not beyond the detection limit”. For the same molecule, the “inhibition of the telomerase reaction (band of telomerase reaction product)” value was “not inhibited at all” in the test with telomerase [1] (in the presence of λDNA) and “inhibited the telomerase reaction” in the test on telomerase [1] (no addition of λDNA). For the same molecule, in the test with telomerase [2], the “total DNA concentration corresponding to the ladder peaks in the reaction product” value is 2.7 ng/µL. Moreover, in test [3], the “amplification of the PCR control (band)” value is given as “became weaker”.
Consider “Cobalt(II) phthalocyanine tetracarboxylic acid [CoPC]”, for which, in the test with double-stranded DNA, the “interaction with the double-stranded DNA (absorption spectrum vs NC solution)” value was “an interaction did not occur”. Also, the “interaction with the G-quadruplex structure (absorption peak)” value (from here on “interaction … (absorption peak)”) in test [4] is reported as “an interaction occurred”. In addition, in test [4] (compared with CuPC, NiPC or PC), the “elevation of the peaks in the range of 640 to 720 nm with G-quadruplex” value is “less than the resultant elevation when CuPC, NiPC or PC was used”. The “interaction with the single-stranded DNA (absorption spectrum vs NC solution)” value in the test with single-stranded DNA was “an interaction did not occur”.
In the case of Phthalocyanine tetrasulfonic acid [PC], the “interaction with the double-stranded DNA (absorption spectrum vs NC solution)” value in the test on double-stranded DNA is “an interaction did not occur”. The “interaction … (absorption peak)” value in test [4] is “an interaction occurred”. Also, the “interaction with the single-stranded DNA (absorption spectrum vs NC solution)” value with single-stranded DNA is given as “an interaction did not occur”.
For the molecule “Zinc(II) phthalocyanine tetrasulfonic acid [ZnPC]”, the “interaction … (absorption peak)” value in test [4] was “specifically interacted with a G-quadruplex structure”.
